From patent publication US6899723B2, “Transcutaneous photodynamic treatment of targeted cells” (Light Sciences Corporation, priority 2001, dated 2005)
“And” between values parts separate entries of the source, which are not always exact repeats. Equal values may be shown once.

Experiments:
normal skin tissue = conditions: systemically administered, clinical use; cited from earlier work
[1] = test system: colon carcinoma tumor mass; assay: Photodynamic therapy of a solid tumor in a patient with implanted LED light source probes; format: in vivo, human
Source text: A patient in the terminal phase of recurrent malignant colon cancer having undergone chemotherapy and irradiation therapy, presented with a protruding colon carcinoma tumor mass of approximately 500 grams and approximately 13 cm in diameter, which extended through the patient's dermis. Due to the advanced state of the patient's disease and due to the highly vascularized nature of this tumor mass, resection was not feasible. Further, this large tumor mass presented a significant amount of pain and discomfort to the patient, as well as greatly impairing the patient's ability to lie flat.
Six separate light source probes, each including a linear array of LEDs, were surgically implanted in this large human tumor using standard surgical procedures. A single dose of a photosensitizer agent (aminolevulinic acid (ALA) at 60 mg/kg) was provided by oral administration to the patient. Following a period of five hours to permit sufficient clearance of the photosensitizing agent from healthy tissues, light irradiation was administered. An intensity of about 25-30 mW of light from each light source probe (650 nm peak wavelength) was delivered to the tumor for 40 hours. […] The total fluence delivered to the tumor bed during this single extended duration treatment was in excess of 20,000 Joules.
The fluence rate employed in this Example represented about 150-180 mW/cm^2, with a total fluence more than 20,000 Joules.

epithelial cancer cells = assay: Low fluence PDT of nude mice injected with epithelial cancer cells preincubated with photosensitizer; format: in vivo; conditions: for tumor growth: 660 nm light about 48 hours, 30 microwatts per cm^2, after 1.5 months
Procedure: (§1) A series of experiments were performed using nude mice growing transplanted human tumors. The mice are injected with various photosensitizers and the tumors illuminated with low fluence of only […] of light over a 72 hour time period. Extended tumor necrosis was observed.
(§2) Another two mice with established tumors were injected with 50-100 micrograms of Pheophorbide A into the lesion and exposed to 660 nm light (30 microwatts per cm^2) for 72 hours.
(§3) Two experimental mice were injected with epithelial cancer cells preincubated with 20 micrograms of Chlorin e6. […] Another two mice were injected with 100-150 micrograms of Chlorin e6 intratumorally and then exposed to 660 nm light (30 microwatts per cm^2) for 72 hours.

[2] = test system: transplanted human tumors; assay: Low fluence PDT of established transplanted human tumors in nude mice; format: in vivo; conditions: for tumor necrosis: 660 nm light 30 microwatts per cm^2 for 72 hours, after 7 days
Procedure: as §1, §2, §3
Five experimental mice bearing established tumors were injected with 1 mg Hpd intraperitoneally followed by exposure to 630 nm (peak) light ([…]) for 72 hours. […] There was no effect observed on control animals maintained in the absence of light (dark control mice).

[3] = cited from earlier work
virus-infected T cells = conditions: Blood Cells 18:129-40 (1992); cited from earlier work

Compound: CCOC(=O)C1=Cc2c3nc(cc4nc(cc5[n-]c(cc6[n-]c2c(C)c6CC)c(C)c5CC)C(C)=C4CC)[C@@H](C)[C@]13CC.[Cl-].[Cl-].[Sn] (racemic) [PURLYTIN]
- duration of dermal photosensitivity (normal skin tissue): at least several weeks

Compound: NCC(=O)CCC(=O)O [ALA, aminolevulinic acid]
- reduction of tumor tissue (necrotic tissue debrided) ([1]; over four weeks following PDT): approximately 500 grams
- radius of extensive tumor necrosis from each of the light source probes ([1]; patient, ALA 60 mg/kg oral, 650 nm light, after 40 hours of PDT, total fluence > 20,000 Joules): greater than 5 cm
- collateral damage to surrounding normal tissue ([1]; patient, ALA 60 mg/kg oral, after 40 hours of PDT): no collateral damage

Compound: C=Cc1c(C)c2cc3nc(c(CC(=O)O)c4[nH]c(cc5nc(cc1[nH]2)C(C)=C5CC)c(C)c4C(=O)O)[C@@H](CCC(=O)O)[C@@H]3C [Chlorin e6]
- tumor growth (epithelial cancer cells; cells preincubated with 20 micrograms): no tumor growth
- tumor growth, dark control (epithelial cancer cells; cells preincubated with 20 micrograms, no light): developed a large tumor
- tumor necrosis ([2]; 100-150 micrograms intratumorally): Extensive tumor necrosis

Compound: Oc1cccc(-c2c3nc(c(-c4cccc(O)c4)c4ccc([nH]4)c(-c4cccc(O)c4)c4nc(c(-c5cccc(O)c5)c5ccc2[nH]5)CC4)C=C3)c1 [FOSCAN]
- duration of dermal photosensitivity (normal skin tissue): at least several weeks

Compound: CC(=O)[O-].CC(=O)[O-].CCc1c(CC)c2cc3nc(cnc4cc(OCCOCCOCCOC)c(OCCOCCOCCOC)cc4ncc4nc(cc1[n-]2)C(CCCO)=C4C)C(C)=C3CCCO.O.[Lu+3] [Lutrin, lutetium texaphyrin]
- time tumor tissues retain the agent ([3]; from time of administration): 48 to 96 h and 24 to 96 h
- time at which a larger proportion clears from normal tissue ([3]; in vivo): about 8 hours
- time at which a proportion begins to clear from normal tissue ([3]; in vivo): about 3 hours
- time at which an even greater proportion clears from normal tissue ([3]; in vivo): about 16 hours

Compound: Pheophorbide A
- tumor growth (epithelial cancer cells; cells preincubated with 10 micrograms): no tumor growth
- tumor growth, dark controls (epithelial cancer cells; cells preincubated with 10 micrograms, maintained in the absence of light): developed a large tumor
- tumor necrosis ([2]; 50-100 micrograms into the lesion): Extensive tumor necrosis
- effect on tumor, dark control animals ([2]; 50-100 micrograms into the lesion, no light): no effect

Compound: benzoporphyrin derivatives [BPD]
- effect on T cell membrane after exposure to light (virus-infected T cells): holes developed in the T cell membrane and increased in size until the membrane completely decomposed

Compound: sodium porfimer [PHOTOPHRIN]
- duration of dermal photosensitivity (normal skin tissue): up to six weeks
